Assay results published in patent US8486930B2, “Salts” (Novartis AG, priority 2008, dated 2013).
Where a name gives a salt, the structure may show the parent alone.

Columns and labels:
Format in all cases: physicochemical
[1] = Temperature stability, solid state, 1 week 80° C., tight container; conditions: for resistance to decomposition at elevated temperatures: summary of Table 5
Experimental: (§1) Crystalline forms A of the hydrochloride and tartrate salts of Compound I were prepared according to the methodology described in Examples 1 and 4. Stability against temperature and light were then measured as described below.
(§2) Temperature stability was tested by measuring decomposition and colour change caused by placing the samples in an airtight container for 1 week at 80° C. (in bulk form and as a 1% component in two mixtures) and in an identical container for 1 week at 80° C. and at a relative humidity of 75%. Where a change in XRPD was observed, the temperature of the phase transition was measured using differential scanning […] (DSC).

[2] = Temperature stability, solid state, 1 week 80° C./75% relative humidity; conditions: for Decomposition products (%) / Discoloration / Change in XRPD: 1 week 80° C./75% relative humidity; for Change in XRPD: Bulk (XRPD)
Experimental: as §1, §2

[3] = Hygroscopy by exposure to an atmosphere of 95% RH
Experimental: Crystalline forms A of the hydrochloride and tartrate salts of Compound I were prepared according to the methodology described in Examples 1 and 4.
The samples were tested for hygroscopy by exposure to an atmosphere of 95% RH.

[4] = Light stability, Xenon light approx. 1200 kLuxh; conditions: for Decomposition products (%): Bulk (HPLC); for Change in XRPD: Bulk (XRPD)
Experimental: as §1
Light stability was tested by measuring decomposition and colour change following exposure to the sample to 1200 kiloLuxhours from a Xenon light.

[5] = 1 week 80° C., tight container, 1% in mixture of Lactose 200 mesh (78.5%), corn starch (20%), aerosil 200 (0.5%), magnesium stearate (1%)
[6] = 1 week 80° C., tight container, 1% in mixture of Mannitol 60 (50%), avicel PH 101 (43%), crospovidone (5%), aerosil (1%), magnesium stearate (1%)
[7] = Solid state, 1 week 80° C., tight container, Bulk (HPLC)
[8] = Solid state, 1 week 80° C., tight container, Bulk (XRPD, DSC)
[9] = 1% in mixture of Lactose 200 mesh (78.5%), corn starch (20%), aerosil 200 (0.5%), magnesium stearate (1%)
[10] = 1% in mixture of Mannitol 60 (50%), avicel PH 101 (43%), crospovidone (5%), aerosil (1%), magnesium stearate (1%)

Row | Decomposition products (%) [1, 5] [%] | Decomposition products (%) [1, 6] [%] | Decomposition products (%) [1, 7] [%] | Change in XRPD [1, 8] | Decomposition products (%) ([1]; Unstressed (1 week)) | resistance to decomposition at elevated temperatures [1] | Decomposition products (%) [2, 9] [%] | Discoloration [2, 9] | Decomposition products (%) [2, 10] [%] | Discoloration [2, 10] | Discoloration ([2]; Solid state, Bulk) | Decomposition products (%) ([2]; Solid state, Bulk (HPLC)) | Change in XRPD ([2]; Solid state) | hygroscopy [3] | moisture uptake [3] [%] | Decomposition products (%) [4] [%] | Change in XRPD [4] | also measured | SMILES
1 | 94.8 | 92.7 | 11.5 | No change | 1.1 | good resistance to decomposition | 95.2 | Strong | 95.8 | Strong | Strong | 91.5 | Melted glass | low hygroscopy | 0.61 | 1.1 | No change | Discoloration [1, 5]: Strong; Discoloration [1, 6]: Strong | CCc1cc(/C(C)=N/OCc2ccc(C3CCCCC3)c(C(F)(F)F)c2)ccc1CN1CC(C(=O)O)C1 [Form A of hydrochloride salt, 1-(4-{1-[(E)-4-Cyclohexyl-3-trifluoromethyl-benzyloxyimino]-ethyl}-2-ethyl-benzyl)-azetidine-3-carboxylic acid]
2 | 23.8 | 37.0 | 8.8 | Changed | 0.8 | good resistance to decomposition | 70.9 | Strong | 93.2 | Medium | Strong | 18.0 | Melted glass | slightly hygroscopic | 2.49 | 0.8 | No change | temperature of the phase transition (DSC) ([1]; Solid state, 1 week 80° C., tight container, Bulk (XRPD, DSC), measured where XRPD changed): 136.3 °C; resistance to decomposition under conditions of high humidity and when mixed with representative pharmaceutical compositions ([2]; summary of Table 5, compared with the hydrochloride form): superior resistance to decomposition | CCc1cc(/C(C)=N/OCc2ccc(C3CCCCC3)c(C(F)(F)F)c2)ccc1CN1CC(C(=O)O)C1 [Form A of tartrate salt, 1-(4-{1-[(E)-4-Cyclohexyl-3-trifluoromethyl-benzyloxyimino]-ethyl}-2-ethyl-benzyl)-azetidine-3-carboxylic acid]
